Measurements as given in PubChem BioAssay (NCI).
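Cultured in 96-well plates, cells were exposed to test compound for 48 hours across five concentrations. GI50 marks 50% less growth. TGI denotes the concentration required for complete inhibition of growth.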

What follows are compounds tested on UO-31 renal (assay: growth of human tumour cells (NCI), 48 h).
`COc1ccc(/C=C2/N=C(c3ccccc3)N(c3c(C)n(C)n(-c4ccccc4)c3=O)C2=O)cc1OC` showed a GI50 of over 100 µM and a TGI of over 100 µM.
`C[C@@H]1CC[C@@H]2[C@@H]1[C@H](OC(=O)/C=C/c1ccccc1)[C@]1(C3CCCCC3)C[C@@H](OC(=O)CO)[C@@]2(C)O1` gave a GI50 of 0.015 µM and a TGI of 0.03 µM.
Work on `CCCN1C(=O)N(CCC)C2C1NC(=S)N2/N=C/C=C/c1ccccc1OC` (stereo not given) yielded a GI50 of 1.26 µM and a TGI of over 100 µM.
For `CCn1c2ccccc2c2cc(NC(=O)Nc3ccc([N+](=O)[O-])cc3C)ccc21`, the GI50 was 2.68 µM and the TGI was 17.1 µM.
Work on `COc1cc2c(c(OC)c1OC)-c1ccc(SC)c(=O)cc1C(NC=O)CC2` (stereo not given) yielded a TGI of over 100 µM.
Work on `COc1cccc2c1C(=O)c1c(O)c3c(c(O)c1C2=O)C[C@](O)(C(=O)CO)C[C@H]3O[C@@H]1C[C@@H](NC(=O)CCCCCN(C)C2(c3ccc(F)cc3)CC3CCC2C3)[C@H](O)[C@@H](C)O1` (stereo not given in full) yielded a GI50 of 6.1 µM and a TGI of 12.5 µM.
Work on `CCSc1ncnc2c1ncn2C1OC(CO)C(O)C1O` (stereo not given) yielded a GI50 of 0.405 µM and a TGI of over 100 µM.
Work on `O=C(CSc1nc2ccccc2nc1-c1ccccc1)Nc1ccc(F)cc1` yielded a GI50 of 45.7 µM and a TGI of over 100 µM.
`COc1ccc2c(c1)C(=O)c1c-2c(N2CCN(C(=O)CNCCNCCO)CC2)nc2ccccc12` gave a GI50 of 1.89 µM and a TGI of 4.54 µM.
`O=C1Nc2ccccc2/C1=N\[O-].O=C1Nc2ccccc2/C1=N\[O-].[Cu+2]` was tested, and the GI50 was over 100 µM and the TGI was over 100 µM.
In the case of `CN1C(=O)N(C)C2C1NN=c1s/c(=C\c3ccc(Cl)cc3Cl)c(=O)n12` (stereo not given), the GI50 was 0.892 µM and the TGI was over 71.8 µM.
With `Cc1ccc(NC(=O)CC2CC2)cc1-c1ccc(C(=O)NCC2CC2)cc1` the GI50 was over 25 µM and the TGI was over 25 µM.
With `CCOC(=O)Nc1ccc(C)c(NC(=O)OCC)c1` the TGI was over 100 µM.
With `CNCC#Cc1c(F)ccc2c1/C(=C/c1[nH]ccc1OC)C(=O)N2` the GI50 was 0.13 µM and the TGI was 2.6 µM.
In the case of `Cn1cc(C2=C(c3cn(CCCCO)c4ccccc34)C(=O)NC2=O)c2ccccc21`, the GI50 was 6.33 µM and the TGI was over 20.1 µM.

The compounds below were run on CCRF-CEM leukemia (assay: growth of human tumour cells (NCI), 48 h).
`COc1ccc(/C=C2/N=C(c3ccccc3)N(c3c(C)n(C)n(-c4ccccc4)c3=O)C2=O)cc1OC` was tested, and the GI50 was over 100 µM and the TGI was over 100 µM.
`C[C@@H]1CC[C@@H]2[C@@H]1[C@H](OC(=O)/C=C/c1ccccc1)[C@]1(C3CCCCC3)C[C@@H](OC(=O)CO)[C@@]2(C)O1` gave a GI50 of 4.45 µM and a TGI of 14.1 µM.
Work on `CCCN1C(=O)N(CCC)C2C1NC(=S)N2/N=C/C=C/c1ccccc1OC` (stereo not given) yielded a GI50 of 0.448 µM and a TGI of over 100 µM.
For `CCn1c2ccccc2c2cc(NC(=O)Nc3ccc([N+](=O)[O-])cc3C)ccc21`, the GI50 was 1.62 µM and the TGI was 4 µM.
With `COc1cc2c(c(OC)c1OC)-c1ccc(SC)c(=O)cc1C(NC=O)CC2` (stereo not given) the TGI was over 74.8 µM.
With `COc1cccc2c1C(=O)c1c(O)c3c(c(O)c1C2=O)C[C@](O)(C(=O)CO)C[C@H]3O[C@@H]1C[C@@H](NC(=O)CCCCCN(C)C2(c3ccc(F)cc3)CC3CCC2C3)[C@H](O)[C@@H](C)O1` (stereo not given in full) the GI50 was 1.13 µM and the TGI was 3.92 µM.
`CCSc1ncnc2c1ncn2C1OC(CO)C(O)C1O` (stereo not given) gave a GI50 of 0.146 µM and a TGI of over 100 µM.
In the case of `O=C(CSc1nc2ccccc2nc1-c1ccccc1)Nc1ccc(F)cc1`, the GI50 was over 100 µM and the TGI was over 100 µM.
In the case of `COc1ccc2c(c1)C(=O)c1c-2c(N2CCN(C(=O)CNCCNCCO)CC2)nc2ccccc12`, the GI50 was 1.98 µM and the TGI was 5.22 µM.
For `O=C1Nc2ccccc2/C1=N\[O-].O=C1Nc2ccccc2/C1=N\[O-].[Cu+2]`, the GI50 was over 100 µM and the TGI was over 100 µM.
`CN1C(=O)N(C)C2C1NN=c1s/c(=C\c3ccc(Cl)cc3Cl)c(=O)n12` (stereo not given) showed a GI50 of 0.262 µM and a TGI of over 100 µM.
`Cc1ccc(NC(=O)CC2CC2)cc1-c1ccc(C(=O)NCC2CC2)cc1` was tested, and the GI50 was over 25 µM and the TGI was over 25 µM.
With `CCOC(=O)Nc1ccc(C)c(NC(=O)OCC)c1` the TGI was over 100 µM.
In the case of `CNCC#Cc1c(F)ccc2c1/C(=C/c1[nH]ccc1OC)C(=O)N2`, the GI50 was 0.107 µM and the TGI was 0.954 µM.
With `Cn1cc(C2=C(c3cn(CCCCO)c4ccccc34)C(=O)NC2=O)c2ccccc21` the GI50 was 6 µM and the TGI was over 25 µM.

What follows are compounds tested on TK-10 renal (assay: growth of human tumour cells (NCI), 48 h).
With `COc1ccc(/C=C2/N=C(c3ccccc3)N(c3c(C)n(C)n(-c4ccccc4)c3=O)C2=O)cc1OC` the GI50 was over 100 µM and the TGI was over 100 µM.
Work on `C[C@@H]1CC[C@@H]2[C@@H]1[C@H](OC(=O)/C=C/c1ccccc1)[C@]1(C3CCCCC3)C[C@@H](OC(=O)CO)[C@@]2(C)O1` yielded a GI50 of 9.17 µM and a TGI of 22.5 µM.
With `CCCN1C(=O)N(CCC)C2C1NC(=S)N2/N=C/C=C/c1ccccc1OC` (stereo not given) the GI50 was 12.6 µM and the TGI was over 100 µM.
`CCn1c2ccccc2c2cc(NC(=O)Nc3ccc([N+](=O)[O-])cc3C)ccc21` showed a GI50 of 3.62 µM and a TGI of 15.3 µM.
`COc1cc2c(c(OC)c1OC)-c1ccc(SC)c(=O)cc1C(NC=O)CC2` (stereo not given) gave a TGI of over 100 µM.
Compound `COc1cccc2c1C(=O)c1c(O)c3c(c(O)c1C2=O)C[C@](O)(C(=O)CO)C[C@H]3O[C@@H]1C[C@@H](NC(=O)CCCCCN(C)C2(c3ccc(F)cc3)CC3CCC2C3)[C@H](O)[C@@H](C)O1` (stereo not given in full) has a GI50 of 0.611 µM and a TGI of 1.28 µM.
In the case of `CCSc1ncnc2c1ncn2C1OC(CO)C(O)C1O` (stereo not given), the GI50 was 1.56 µM and the TGI was over 100 µM.
`O=C(CSc1nc2ccccc2nc1-c1ccccc1)Nc1ccc(F)cc1` gave a GI50 of 41.1 µM and a TGI of over 100 µM.
`COc1ccc2c(c1)C(=O)c1c-2c(N2CCN(C(=O)CNCCNCCO)CC2)nc2ccccc12` showed a GI50 of 13.7 µM and a TGI of 32.9 µM.
In the case of `O=C1Nc2ccccc2/C1=N\[O-].O=C1Nc2ccccc2/C1=N\[O-].[Cu+2]`, the GI50 was over 100 µM and the TGI was over 100 µM.
`CN1C(=O)N(C)C2C1NN=c1s/c(=C\c3ccc(Cl)cc3Cl)c(=O)n12` (stereo not given) showed a GI50 of 10.2 µM and a TGI of over 92.4 µM.
`Cc1ccc(NC(=O)CC2CC2)cc1-c1ccc(C(=O)NCC2CC2)cc1` showed a GI50 of over 25 µM and a TGI of over 25 µM.
With `CCOC(=O)Nc1ccc(C)c(NC(=O)OCC)c1` the TGI was over 100 µM.
Compound `CNCC#Cc1c(F)ccc2c1/C(=C/c1[nH]ccc1OC)C(=O)N2` has a GI50 of 0.098 µM and a TGI of 1.89 µM.
For `Cn1cc(C2=C(c3cn(CCCCO)c4ccccc34)C(=O)NC2=O)c2ccccc21`, the GI50 was 10.1 µM and the TGI was over 25 µM.

What follows are compounds tested on NCI-H522 lung (assay: growth of human tumour cells (NCI), 48 h).
`COc1ccc(/C=C2/N=C(c3ccccc3)N(c3c(C)n(C)n(-c4ccccc4)c3=O)C2=O)cc1OC` showed a GI50 of over 100 µM and a TGI of over 100 µM.
`C[C@@H]1CC[C@@H]2[C@@H]1[C@H](OC(=O)/C=C/c1ccccc1)[C@]1(C3CCCCC3)C[C@@H](OC(=O)CO)[C@@]2(C)O1` showed a GI50 of 2.4 µM and a TGI of 6.75 µM.
Compound `CCCN1C(=O)N(CCC)C2C1NC(=S)N2/N=C/C=C/c1ccccc1OC` (stereo not given) has a GI50 of 0.336 µM and a TGI of 12.7 µM.
`CCn1c2ccccc2c2cc(NC(=O)Nc3ccc([N+](=O)[O-])cc3C)ccc21` was tested, and the GI50 was 1.96 µM and the TGI was 7.64 µM.
With `COc1cc2c(c(OC)c1OC)-c1ccc(SC)c(=O)cc1C(NC=O)CC2` (stereo not given) the TGI was under 0.01 µM.
Work on `COc1cccc2c1C(=O)c1c(O)c3c(c(O)c1C2=O)C[C@](O)(C(=O)CO)C[C@H]3O[C@@H]1C[C@@H](NC(=O)CCCCCN(C)C2(c3ccc(F)cc3)CC3CCC2C3)[C@H](O)[C@@H](C)O1` (stereo not given in full) yielded a GI50 of 0.707 µM and a TGI of 1.57 µM.
With `CCSc1ncnc2c1ncn2C1OC(CO)C(O)C1O` (stereo not given) the GI50 was 0.648 µM and the TGI was over 100 µM.
`O=C(CSc1nc2ccccc2nc1-c1ccccc1)Nc1ccc(F)cc1` showed a GI50 of 24.2 µM and a TGI of over 100 µM.
`COc1ccc2c(c1)C(=O)c1c-2c(N2CCN(C(=O)CNCCNCCO)CC2)nc2ccccc12` gave a GI50 of 1.81 µM and a TGI of 4.08 µM.
Work on `O=C1Nc2ccccc2/C1=N\[O-].O=C1Nc2ccccc2/C1=N\[O-].[Cu+2]` yielded a GI50 of over 100 µM and a TGI of over 100 µM.
`CN1C(=O)N(C)C2C1NN=c1s/c(=C\c3ccc(Cl)cc3Cl)c(=O)n12` (stereo not given) was tested, and the GI50 was 0.0958 µM and the TGI was over 57.8 µM.
In the case of `Cc1ccc(NC(=O)CC2CC2)cc1-c1ccc(C(=O)NCC2CC2)cc1`, the GI50 was over 25 µM and the TGI was over 25 µM.
With `CCOC(=O)Nc1ccc(C)c(NC(=O)OCC)c1` the TGI was over 100 µM.
In the case of `CNCC#Cc1c(F)ccc2c1/C(=C/c1[nH]ccc1OC)C(=O)N2`, the GI50 was 0.299 µM and the TGI was 1.17 µM.
Work on `Cn1cc(C2=C(c3cn(CCCCO)c4ccccc34)C(=O)NC2=O)c2ccccc21` yielded a GI50 of 10.4 µM and a TGI of over 25 µM.

Each compound was assayed on SK-MEL-2 melanoma (assay: growth of human tumour cells (NCI), 48 h).
Work on `COc1ccc(/C=C2/N=C(c3ccccc3)N(c3c(C)n(C)n(-c4ccccc4)c3=O)C2=O)cc1OC` yielded a GI50 of over 100 µM and a TGI of over 100 µM.
`C[C@@H]1CC[C@@H]2[C@@H]1[C@H](OC(=O)/C=C/c1ccccc1)[C@]1(C3CCCCC3)C[C@@H](OC(=O)CO)[C@@]2(C)O1` showed a GI50 of 4.03 µM and a TGI of 16.1 µM.
For `CCCN1C(=O)N(CCC)C2C1NC(=S)N2/N=C/C=C/c1ccccc1OC` (stereo not given), the GI50 was 2.08 µM and the TGI was over 63.4 µM.
With `CCn1c2ccccc2c2cc(NC(=O)Nc3ccc([N+](=O)[O-])cc3C)ccc21` the GI50 was 3.33 µM and the TGI was 15.4 µM.
`COc1cc2c(c(OC)c1OC)-c1ccc(SC)c(=O)cc1C(NC=O)CC2` (stereo not given) was tested, and the TGI was over 94.7 µM.
`COc1cccc2c1C(=O)c1c(O)c3c(c(O)c1C2=O)C[C@](O)(C(=O)CO)C[C@H]3O[C@@H]1C[C@@H](NC(=O)CCCCCN(C)C2(c3ccc(F)cc3)CC3CCC2C3)[C@H](O)[C@@H](C)O1` (stereo not given in full) was tested, and the GI50 was 1.18 µM and the TGI was 2.52 µM.
`CCSc1ncnc2c1ncn2C1OC(CO)C(O)C1O` (stereo not given) was tested, and the GI50 was 24.1 µM and the TGI was over 100 µM.
Work on `O=C(CSc1nc2ccccc2nc1-c1ccccc1)Nc1ccc(F)cc1` yielded a GI50 of 73.5 µM and a TGI of over 100 µM.
Compound `COc1ccc2c(c1)C(=O)c1c-2c(N2CCN(C(=O)CNCCNCCO)CC2)nc2ccccc12` has a GI50 of 2.2 µM and a TGI of 4 µM.
Work on `O=C1Nc2ccccc2/C1=N\[O-].O=C1Nc2ccccc2/C1=N\[O-].[Cu+2]` yielded a GI50 of over 100 µM and a TGI of over 100 µM.
`CN1C(=O)N(C)C2C1NN=c1s/c(=C\c3ccc(Cl)cc3Cl)c(=O)n12` (stereo not given) showed a GI50 of 11.7 µM and a TGI of over 100 µM.
`Cc1ccc(NC(=O)CC2CC2)cc1-c1ccc(C(=O)NCC2CC2)cc1` showed a GI50 of over 25 µM and a TGI of over 25 µM.
In the case of `CCOC(=O)Nc1ccc(C)c(NC(=O)OCC)c1`, the TGI was over 100 µM.
In the case of `CNCC#Cc1c(F)ccc2c1/C(=C/c1[nH]ccc1OC)C(=O)N2`, the GI50 was 0.0799 µM and the TGI was 0.369 µM.
`Cn1cc(C2=C(c3cn(CCCCO)c4ccccc34)C(=O)NC2=O)c2ccccc21` gave a GI50 of 7.65 µM and a TGI of 21.6 µM.
